Reference: US8513229B2, “4-Azetidinyl-1-phenyl-cyclohexane antagonists of CCR2” (Janssen Pharmaceutica NV, priority 2009, dated 2013)

molecular target: T1, CCR2 (Homo sapiens, UniProt P41597); experiment: MCP-1 Receptor Binding Assay in THP-1 Cells; details: 0.5 nM 125I labeled MCP-1, 2 hours at 30° C., read-out: Inhibition of MCP-1 Binding IC50 CCR2 Binding
T1 construct: host or cells: THP-1 human monocytic cells
T1 sequence (P41597 1-360 isoform P41597-2): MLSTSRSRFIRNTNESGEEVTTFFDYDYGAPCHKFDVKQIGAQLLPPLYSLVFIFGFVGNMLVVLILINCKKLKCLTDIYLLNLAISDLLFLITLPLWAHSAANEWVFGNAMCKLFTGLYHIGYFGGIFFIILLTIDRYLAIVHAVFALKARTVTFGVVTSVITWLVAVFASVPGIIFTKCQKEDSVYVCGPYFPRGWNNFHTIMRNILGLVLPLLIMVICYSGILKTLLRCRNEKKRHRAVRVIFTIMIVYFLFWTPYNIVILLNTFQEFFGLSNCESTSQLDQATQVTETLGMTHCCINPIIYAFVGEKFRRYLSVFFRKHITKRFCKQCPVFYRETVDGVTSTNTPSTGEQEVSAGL
Experimental: MCP-1 Receptor Binding Assay in THP-1 Cells
Human monocytic cell line THP-1 cells were obtained from American Type Culture Collection (Manassas, Va., USA). […] The cell density was maintained […].
1 μM cold MCP-1 was used for nonspecific binding.

SMILES	IC50
NC(=O)c1ccc(C2(O)CCC(N3CC(NC(=O)CNC(=O)c4cccc(C(F)(F)F)c4)C3)CC2)cc1 (single isomer, unassigned) [Example 55a, N-({1-[4-(4-benzamide)-4-hydroxy-cyclohexyl]-azetidin-3-ylcarbamoyl}-methyl)-3-trifluoromethyl-benzamide]	5300 nM
COc1ccccc1C1(O)CCC(N2CC(NC(=O)CNC(=O)c3cccc(C(F)(F)F)c3)C2)CC1 (single isomer, unassigned) [Example 56a, N-({1-[4-Hydroxy-4-(2-methoxy-phenyl)-cyclohexyl]-azetidin-3-ylcarbamoyl}-methyl)-3-trifluoromethyl-benzamide]	5200 nM
COc1ccc(C2(O)CCC(N3CC(NC(=O)CNC(=O)c4cccc(C(F)(F)F)c4)C3)CC2)cc1F (single isomer, unassigned) [Example 57a, N-({1-[4-(3-Fluoro-4-methoxy-phenyl)-4-hydroxy-cyclohexyl]-azetidin-3-ylcarbamoyl}-methyl)-3-trifluoromethyl-benzamide]	33 nM
Nc1cccc(C2(O)CCC(N3CC(NC(=O)CNC(=O)c4cccc(C(F)(F)F)c4)C3)CC2)c1 (single isomer, unassigned) [Example 58a, N-({1-[4-(3-Amino-phenyl)-4-hydroxy-cyclohexyl]-azetidin-3-ylcarbamoyl}-methyl)-3-trifluoromethyl-benzamide]	52 nM
CCn1c(=O)oc2ccc(C3(O)CCC(N4CC(NC(=O)CNC(=O)c5cccc(C(F)(F)F)c5)C4)CC3)cc21 (single isomer, unassigned) [Example 65a, N-({1-[4-(3-Ethyl-2-oxo-2,3-dihydro-benzooxazol-5-yl)-4-hydroxy-cyclohexyl]-azetidin-3-ylcarbamoyl}-methyl)-3-trifluoromethyl-benzamide]	150 nM
O=C(CNC(=O)c1ccc(F)c(C(F)(F)F)c1)NC1CN(C2CCC(c3ccccc3)CC2)C1 (single isomer, unassigned) [Example 71a, 4-Fluoro-N-{[1-(4-phenyl-cyclohexyl)-azetidin-3-ylcarbamoyl]-methyl}-3-trifluoromethyl-benzamide]	200 nM
O=C(CNC(=O)c1cc(C(F)(F)F)cc(C(F)(F)F)c1)NC1CN(C2CCC(c3ccccc3)CC2)C1 (single isomer, unassigned) [Example 75a, N-{[1-(4-Phenyl-cyclohexyl)-azetidin-3-ylcarbamoyl]-methyl}-3,5-bis-trifluoromethyl-benzamide]	4700 nM
O=C(CNC(=O)c1cc(F)cc(C(F)(F)F)c1)NC1CN(C2CCC(c3ccccc3)CC2)C1 (single isomer, unassigned) [Example 76a, 3-Fluoro-N-{[1-(4-phenyl-cyclohexyl)-azetidin-3-ylcarbamoyl]-methyl}-5-trifluoromethyl-benzamide]	220 nM
NC1(c2ccccc2)CCC(N2CC(NC(=O)CNC(=O)c3cccc(C(F)(F)F)c3)C2)CC1 (single isomer, unassigned) [Example 84a, N-{[1-(4-Amino-4-phenyl-cyclohexyl)-azetidin-3-ylcarbamoyl]-methyl}-3-trifluoromethyl-benzamide]	240 nM
NC1(c2ccc3c(c2)OCO3)CCC(N2CC(NC(=O)CNC(=O)c3cccc(C(F)(F)F)c3)C2)CC1 (single isomer, unassigned) [Example 85a, N-{[1-(4-Amino-4-benzo[1,3]dioxol-5-yl-cyclohexyl)-azetidin-3-ylcarbamoyl]-methyl}-3-trifluoromethyl-benzamide]	280 nM
COc1cccc(C2(N)CCC(N3CC(NC(=O)CNC(=O)c4cccc(C(F)(F)F)c4)C3)CC2)c1 (single isomer, unassigned) [Example 87a, N-({1-[4-Amino-4-(3-methoxy-phenyl)-cyclohexyl]-azetidin-3-ylcarbamoyl}-methyl)-3-trifluoromethyl-benzamide]	330 nM
O=C(CNC(=O)c1cccc(C(F)(F)F)c1)NC1CN(C2CCC(c3ccc(C(=O)O)cc3)CC2)C1 (stereo not drawn) [Example 10, 4-(4-{3-[2-(3-Trifluoromethyl-benzoylamino)-acetylamino]-azetidin-1-yl}-cyclohexyl)-benzoic acid]	70 nM
